{"source": "patent US11548925B2", "about": "“CACNA1H-derived tumor antigen polypeptide and use thereof” (Genoimmune Therapeutics Co., Ltd., priority 2016, dated 2023)", "key": {"CD8+ T cells [1]": {"test_system": "CD8+ T cells", "assay": "ELISPOTs detection of IFN-γ secretion by peptide-specific CD8+ T cells", "type": "cell-based, human", "excerpt": "In this example, a ELISPOTs detection kit (Cat. No.: 3420-4AST-10, MABTECH) was used to verify the activation of an immune response of CD8+ T cells by the peptides of the present invention.\nPrinciple of the ELISPOTs detection method is as follows: CD8+ T cells can specifically recognize the complex of HLA-A0201 and a peptide. The population of T cells recognizing the complex of the peptide and HLA-A0201 is varying, depending on the peptide sequence. Since T2 cells express HLA-A0201, CD8+ T cells can specifically recognize the T2 cells loaded with a peptide. After specific recognition of the complex of HLA-A0201 and the peptide, peptide-specific CD8+ T cells can be activated again to secrete IFN-γ interferon. The IFN-γ interferon secreted by the activated CD8+ T cells can be captured by antibodies on the ELISPOTs plate. Finally, the enzyme-conjugated antibody that recognizes IFN-γ can degrade the substrate through the enzyme conjugated thereto and develop color, eventually producing spots. The number of spots represents the number of cells that are activated to secrete IFN-γ interferon.\nThe cultured cells from Example 3 were added, along with T2 cells loaded with the mutant peptide […] (SEQ ID NO: 2) of the present invention and the wild-type peptide […] (SEQ ID NO: 1), respectively, into ELISPOTs plates, and cultured for 20 h, and then a ELISPOTs detection was performed (see the kit instruction). Finally, the spots produced by the ELISPOTs detection were counted.\nThe peptide was determined to have immunogenicity when the number of spots of the tested peptide/the number of spots of an unrelated peptide>2; that is, if the number of spots caused by the tested peptide is more than twice than that of an unrelated peptide, the tested peptide is determined to have immunogenicity."}, "T2 cells": {"test_system": "T2 cells", "assay": "LDH release assay, killing of peptide-loaded T2 target cells by CD8+ T cells", "type": "cell-based, human", "details": "for Killing efficiency: 4 h", "description": "The cells cultured in Example 3 were co-cultured with T2 cells loaded with the mutant peptides of the present invention or the wild-type peptide or without a peptide. A maximum release well, a volume correction well, a medium control well, a spontaneous release well and control wells for example at different effector-to-target ratios (ratios of T cells to T2 cells) were set in this experiment. Three replicate wells were set for each group. After 4 h, 50 μl of the co-culture supernatant was taken out and added to 50 μl of LDH substrate mixture to catalyze the reaction of LDH substrate. Finally, the plates were read at a wavelength of 490 nm, with a reference wavelength of 680 nm, and the killing activity against target cells T2 was calculated based on the control wells.\nThe formula for calculating the killing activity is: Killing efficiency (%)=(test well−spontaneous release of effector cells−spontaneous release of target cells+medium well)/(maximum release of target cells−volume correction well−spontaneous release of target cells+medium well)×100%"}, "[2]": {"test_system": "H2087-TLISSLMPI (SEQ ID NO: 2) subcutaneous tumor", "assay": "Peptide-specific DC-CTL vaccine in H2087-[…] tumor model", "type": "in vivo, NOD/SCID mice", "details": "DC-CTL activated by peptide, tail vein, about 1×10^8 cells; vs wild-type peptide group", "description": "The human non-small cell lung adenocarcinoma cell line H2087-[…] (SEQ ID NO: 2) as established in Example 7 was cultured in DMEM medium containing 10% fetal bovine serum, 100 U/mL penicillin and 100 U/mL streptomycin in an incubator at 37° C., 5% CO2. H2087-[…] (SEQ ID NO: 2) tumor cells were collected, centrifuged at 1500 rpm for 5 min, and washed 3 times with sterile physiological saline. The tumor cells were diluted appropriately. To 40 μl of cell suspension was added 10 μl of 0.4% […] for staining and microscopically counting cells. A tumor cell suspension at a concentration of 1*10^8 cells/ml was prepared. 100 μl of the tumor cell suspension was inoculated subcutaneously into a NOD/SCID mouse or an immune-reconstituted NOD/SCID mouse. […] The long diameter a and the short diameter b of the tumor were measured with a vernier caliper every 2-3 days and the size of the tumor was calculated as a*b*b/2. The mice and tumors were weighed and recorded every day. […] The tumor volume and the survival rate of mice were recorded every 2 days. […]\nThe collected PBLs were subjected to magnetic bead sorting to obtain CD8+ T cells, which were sensitized by co-incubation with DCs loaded with the wild-type peptide, DCs loaded with the mutant peptide […] […] The number of lymphocytes was counted and a cell proliferation index (PI) was calculated on days 0, 7, 14, and 21 of culture, respectively. […]"}, "CD8+ T cells [3]": {"test_system": "CD8+ T cells", "assay": "ELISPOTs detection of IFN-γ secretion by peptide-specific CD8+ T cells", "type": "cell-based, human", "details": "ratio of spot numbers; >2 immunogenic"}}, "data": [{"sequence": "TLISSLMPI [tumor antigen peptide from CACNA1H mutation, position 1428 arginine to methionine]", "values": [{"measurement": "Conclusion (immunogenicity)", "setting": "CD8+ T cells [1]; ELISPOTs", "value": "immunogenic"}, {"measurement": "Number of spots in the mutant peptide group", "setting": "CD8+ T cells [1]; T cells activated by the listed peptide, T2 cells loaded with TLISSLMPI, 20 h", "value": 306}, {"measurement": "Number of spots in the wild-type peptide group", "setting": "CD8+ T cells [1]; T cells activated by the listed peptide, T2 cells loaded with TLISSLRPI, 20 h", "value": 33}, {"measurement": "Killing efficiency", "setting": "T2 cells; effector-to-target ratio 1:1, target T2 loaded with TLISSLMPI", "value": 7.96, "unit": "%"}, {"measurement": "Killing efficiency", "setting": "T2 cells; effector-to-target ratio 1:1, target T2 loaded with wild-type TLISSLRPI", "value": 2.23, "unit": "%"}, {"measurement": "Killing efficiency", "setting": "T2 cells; effector-to-target ratio 10:1, target T2 loaded with TLISSLMPI", "value": 38.89, "unit": "%"}, {"measurement": "Killing efficiency", "setting": "T2 cells; effector-to-target ratio 10:1, target T2 loaded with wild-type TLISSLRPI", "value": 4.23, "unit": "%"}, {"measurement": "Specific killing of target cells (in words)", "setting": "T2 cells; effector-to-target ratio of 1:1 or 1:10 as printed", "value": "capable of killing T2 cells presenting the mutant peptide, but not the T2 cells presenting a wild-type peptide"}, {"measurement": "Survival period of mice", "setting": "[2]", "value": "prolonged the survival period of mice"}, {"measurement": "Tumor-suppressing effect", "setting": "[2]", "value": "significant tumor-suppressing effects"}, {"measurement": "Fold (tested/wild-type)", "setting": "CD8+ T cells [3]", "value": 9.27}]}]}
